Measured values taken from US20240158348A1, “HERBICIDAL CYCLIC AMIDES N-SUBSTITUTED WITH A HALOALKYLSULFONYLANILIDE GROUP” (FMC Corporation, priority 2021, published 2024).

Columns and labels:
Assay type in all cases: in vivo
corn (Zea mays) = test: Test C preemergence, corn; conditions: 0 is no effect, 100 is complete control
How it was run: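 Steps: sow in loam soil blended with sand; treat soil preemergence by directed spray, or treat young plants (2–10 cm, one to two leaves) postemergence; hold in greenhouse 10 or 12 days; rate injury visually relative to untreated controls on a 0–100 scale.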

[1] = system: foxtail, giant (giant foxtail, Setaria faberi); test: Test C preemergence, giant foxtail; conditions: 0 is no effect, 100 is complete control
How it was run: (§1)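 Plants grown in a sand and loam soil blend received the formulated test chemicals either as a preemergence soil-directed spray or postemergence at 2 to 10 cm height. After 10 or 12 greenhouse days, injury was assessed visually, with 100 meaning complete control.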

[2] = system: oat, wild (wild oat, Avena fatua); test: Test C preemergence, wild oat; conditions: 0 is no effect, 100 is complete control
How it was run: as §1

soybean (Glycine max) = test: Test C preemergence, soybean; conditions: 0 is no effect, 100 is complete control
How it was run: as §1

[3] = system: blackgrass (Alopecurus myosuroides); test: Test C postemergence, blackgrass; conditions: visual injury, 0 to 100 scale (0 no effect, 100 complete control)
How it was run: as §1

kochia (Bassia scoparia) = test: Test C postemergence, kochia; conditions: for Kochia plant response rating: visual injury, 0 to 100 scale (0 no effect, 100 complete control); for Plant response rating (0 to 100 scale), Kochia: 0 is no effect, 100 is complete control
How it was run: as §1

[4] = system: pigweed, palmer (palmer amaranth, Amaranthus palmeri); test: Test C postemergence, palmer amaranth; conditions: for Pigweed, Palmer plant response rating: visual injury, 0 to 100 scale (0 no effect, 100 complete control)
How it was run: as §1

[5] = system: ducksalad (Heteranthera limosa); test: Test D flooded paddy test, ducksalad; design: key: 0 = no effect, 100 = complete control; conditions: 250 g ai/ha, Flood; applied to paddy water at 2-leaf stage; visual rating after 13 days; scale 0 (no effect) to 100 (complete control)
How it was run: (§2)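 Test compounds applied directly to paddy water after pots were flooded to 3 cm above soil, with plants at 2-leaf stage; depth held throughout. Greenhouse for 13 days, then visual rating versus controls on 0–100 scale (0 no effect, 100 complete control); dash means no result.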

rice (Oryza sativa) = test: Test D flooded paddy test, rice; design: key: 0 = no effect, 100 = complete control; conditions: 250 g ai/ha, Flood; applied to paddy water at 2-leaf stage; visual rating after 13 days; scale 0 (no effect) to 100 (complete control)
How it was run: as §2

Row | Compound | Plant response rating (0 to 100 scale), Corn (corn (Zea mays); 31 g ai/ha Preemergence) | Plant response rating (0 to 100 scale), Corn (corn (Zea mays); 125 g ai/ha Preemergence) | Plant response rating (0 to 100 scale), Foxtail, Giant ([1]; 31 g ai/ha Preemergence) | Plant response rating (0 to 100 scale), Foxtail, Giant ([1]; 125 g ai/ha Preemergence) | Plant response rating (0 to 100 scale), Oat, Wild ([2]; 31 g ai/ha Preemergence) | Plant response rating (0 to 100 scale), Oat, Wild ([2]; 125 g ai/ha Preemergence) | Plant response rating (0 to 100 scale), Soybean (soybean (Glycine max); 31 g ai/ha Preemergence) | Plant response rating (0 to 100 scale), Soybean (soybean (Glycine max); 125 g ai/ha Preemergence) | Blackgrass plant response rating ([3]; 31 g ai/ha Postemergence) | Blackgrass plant response rating ([3]; 125 g ai/ha Postemergence) | Kochia plant response rating (kochia (Bassia scoparia); 31 g ai/ha Postemergence) | Kochia plant response rating (kochia (Bassia scoparia); 125 g ai/ha Postemergence) | Pigweed, Palmer plant response rating ([4]; 31 g ai/ha Postemergence) | Pigweed, Palmer plant response rating ([4]; 125 g ai/ha Postemergence) | Plant response rating, Ducksalad [5] | Plant response rating, Rice (rice (Oryza sativa)) | Plant response rating (0 to 100 scale), Kochia (kochia (Bassia scoparia); 125 g ai/ha Postemergence) | Plant response rating (0 to 100 scale), Pigweed, Palmer ([4]; 125 g ai/ha Postemergence, 0 is no effect, 100 is complete control)
1 | C=C(C)COC1CCN(c2cc(NS(=O)(=O)C(F)(F)F)c(C)cc2C)C1=O (stereo not drawn) [Compound 59] | 40 | 100 | 100 | 100 | 80 | 100 | 60 | 90 | 10 | 80 | 70 | 80 | 40 | 80 | 80 | 40 | – | –
2 | Cc1cc(C)c(N(COC(=O)C(C)(C)C)S(=O)(=O)C(F)(F)F)cc1N1CCC(OCC2CC2(F)F)C1=O (stereo not drawn) [Compound 54] | 0 | 30 | 0 | 80 | 0 | 80 | 0 | 30 | 30 | 90 | 30 | 50 | 0 | 50 | 90 | 0 | – | –
3 | Cc1cc(C)c(N2CCC(OC3COC3)C2=O)cc1NS(=O)(=O)C(F)(F)F (stereo not drawn) [Compound 34] | 10 | 80 | 90 | 90 | 30 | 80 | 40 | 90 | 30 | – | 80 | – | 70 | 100 | 65 | 25 | 90 | –
4 | Cc1c(NS(=O)(=O)C(F)(F)F)cc(N2CCC(OCC3CC3)C2=O)c(C)c1F (stereo not drawn) [Compound 63] | 30 | 100 | 100 | 100 | 70 | 100 | 60 | 100 | 0 | 30 | 80 | 90 | 70 | 90 | 95 | 45 | – | –
5 | Cc1cc(C)c(N(C(=O)OC(C)C)S(=O)(=O)C(F)(F)F)cc1N1CCC(OC2CC2)C1=O (stereo not drawn) [Compound 18] | 0 | 0 | 0 | 0 | 0 | 0 | 0 | 30 | 0 | – | 20 | – | 0 | – | 0 | 0 | 70 | 20
6 | COC(=O)N(c1cc(N2CCC(OC3CC3)C2=O)c(C)cc1Cl)S(=O)(=O)C(F)(F)F (stereo not drawn) [Compound 40] | 50 | 90 | 100 | 100 | 10 | 90 | 70 | 90 | 10 | – | 70 | – | 30 | 90 | 70 | 0 | 90 | –
